Read-outs that look alike come from different tables or passages of the source.
Experiments:
human Nav1.7 = human Nav1.7 (Homo sapiens (Human), UniProt Q15858); experiment: FLIPR or FLIPR TETRA sodium dye assay with KCl and test article pre-incubation; type: cell-based
hNav1.7 = hNav1.7 (Homo sapiens (Human), UniProt Q15858); experiment: Electrophysiology (EP) assay, whole-cell patch clamp; type: cell-based; details: hNav1.7 HEK-293 cells; for Kd: Kf (method describes resting block dissociation constant Kr), read-out: EP Nav 1.7 Kf (μM) ± SEM; for Ki: affinity for inactivated state, read-out: EP Nav 1.7 Ki (μM) ± SEM
Sequence of hNav1.7 (Q15858 other isoform, or with tags, fused parts or gaps): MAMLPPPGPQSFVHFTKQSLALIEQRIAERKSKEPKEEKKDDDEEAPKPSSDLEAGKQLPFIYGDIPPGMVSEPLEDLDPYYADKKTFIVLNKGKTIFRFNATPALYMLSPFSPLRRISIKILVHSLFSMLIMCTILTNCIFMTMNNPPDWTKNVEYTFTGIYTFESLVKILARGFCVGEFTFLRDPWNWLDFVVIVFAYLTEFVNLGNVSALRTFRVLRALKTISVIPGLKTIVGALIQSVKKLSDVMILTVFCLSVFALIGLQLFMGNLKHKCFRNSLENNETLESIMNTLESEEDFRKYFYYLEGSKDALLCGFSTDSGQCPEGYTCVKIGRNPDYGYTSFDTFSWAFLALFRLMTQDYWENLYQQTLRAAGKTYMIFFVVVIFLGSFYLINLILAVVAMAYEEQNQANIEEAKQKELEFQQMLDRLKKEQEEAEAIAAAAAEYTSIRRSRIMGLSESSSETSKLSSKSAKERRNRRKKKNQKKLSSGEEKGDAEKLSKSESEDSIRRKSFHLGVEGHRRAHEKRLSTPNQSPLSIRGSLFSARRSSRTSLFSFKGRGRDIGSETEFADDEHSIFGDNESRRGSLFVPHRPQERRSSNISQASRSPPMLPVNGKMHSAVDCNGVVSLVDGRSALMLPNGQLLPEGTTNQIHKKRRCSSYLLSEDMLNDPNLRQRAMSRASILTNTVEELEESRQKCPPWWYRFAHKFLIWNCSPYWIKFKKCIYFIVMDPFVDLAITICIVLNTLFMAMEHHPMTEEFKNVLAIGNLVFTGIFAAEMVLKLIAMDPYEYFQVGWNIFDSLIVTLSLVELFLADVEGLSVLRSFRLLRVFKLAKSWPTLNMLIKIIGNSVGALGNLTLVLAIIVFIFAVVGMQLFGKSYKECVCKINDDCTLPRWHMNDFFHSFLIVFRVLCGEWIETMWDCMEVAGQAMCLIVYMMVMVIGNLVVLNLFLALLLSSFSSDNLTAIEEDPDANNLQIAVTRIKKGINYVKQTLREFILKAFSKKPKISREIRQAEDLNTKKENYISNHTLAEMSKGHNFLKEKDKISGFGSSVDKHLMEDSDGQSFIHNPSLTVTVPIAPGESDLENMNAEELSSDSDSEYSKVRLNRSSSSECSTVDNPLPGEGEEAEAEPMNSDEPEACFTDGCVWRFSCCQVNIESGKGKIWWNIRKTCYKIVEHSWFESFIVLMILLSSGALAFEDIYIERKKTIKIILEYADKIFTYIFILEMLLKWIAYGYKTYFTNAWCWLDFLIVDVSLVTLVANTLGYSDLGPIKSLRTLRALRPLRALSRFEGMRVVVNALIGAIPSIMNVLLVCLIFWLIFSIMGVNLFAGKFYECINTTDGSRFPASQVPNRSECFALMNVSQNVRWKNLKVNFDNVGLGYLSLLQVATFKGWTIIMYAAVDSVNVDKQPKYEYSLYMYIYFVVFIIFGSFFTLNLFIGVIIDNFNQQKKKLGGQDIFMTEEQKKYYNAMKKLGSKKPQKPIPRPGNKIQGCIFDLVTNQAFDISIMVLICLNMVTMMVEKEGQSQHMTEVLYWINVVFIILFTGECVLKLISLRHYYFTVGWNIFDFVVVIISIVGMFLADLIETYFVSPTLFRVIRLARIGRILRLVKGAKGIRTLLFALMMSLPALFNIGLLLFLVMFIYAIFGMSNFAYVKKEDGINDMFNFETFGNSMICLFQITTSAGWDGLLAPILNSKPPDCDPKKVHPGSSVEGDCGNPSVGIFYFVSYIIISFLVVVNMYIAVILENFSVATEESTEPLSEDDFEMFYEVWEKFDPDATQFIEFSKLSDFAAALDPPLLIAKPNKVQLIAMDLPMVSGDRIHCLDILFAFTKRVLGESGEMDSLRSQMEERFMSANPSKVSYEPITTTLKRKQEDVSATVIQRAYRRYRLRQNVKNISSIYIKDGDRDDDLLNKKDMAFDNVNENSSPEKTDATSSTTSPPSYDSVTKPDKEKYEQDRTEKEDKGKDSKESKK
Experimental: Cells: The hNav1.7 expressing HEK-293 cells were plated on 35 mm culture dishes pre-coated with poly-D-lysine in standard DMEM culture media (Mediatech, Inc., Herndon, Va.) and incubated in a 5% CO2 incubator at 37° C. Cultured cells were used approximately 12-48 hours after plating.
Electrophysiology: On the day of experimentation, the 35 mm dish was placed on the stage of an inverted microscope equipped with a perfusion system that continuously perfuses the culture dish with fresh recording media. A gravity driven superfusion system was used to apply test solutions directly to the cell under evaluation. This system consists of an array of glass pipette glass connected to a motorized horizontal translator. The outlet of the shooter was positioned approximately 100 μm from the cell of interest.
Whole cell currents were recorded using the whole-cell patch clamp configuration using an Axopatch 200B amplifier (Axon Instruments, Foster City Calif.), 1322A A/D converter (Axon Instruments) and pClamp software (v. 8; Axon Instruments) and stored on a personal computer. Gigaseals were formed and the whole-cell configuration was established in voltage clamp mode, and membrane currents generated by hNav1.7 were recorded in gap-free mode. Borosilicate glass pipettes have resistance values between 1.5 and 2.0 MΩ when filled with pipette solution and series resistance (<5 MΩ) was compensated 75-80%. Signals were sampled at 50 kHz and low pass filtered at 3 kHz.
Voltage Protocols: After establishing the whole-cell configuration in voltage clamp mode, voltage protocols were run to establish the 1) test potential, 2) holding potential, and 3) the conditioning potential for each cell.
After establishing the whole-cell configuration in voltage clamp mode, a standard I-V protocol was run to determine the potential at which the maximal current (Imax) is elicited. This potential was the test potential (Vt). To determine a conditioning potential at which 100% of channels were in the inactivated state, a standard steady-state inactivation (SSIN) protocol was run using a series of fifteen 100 ms-long depolarizing prepulses, incrementing in 10 mV steps, immediately followed by a 5 ms testing pulse, Vt, to Vmax. This protocol also permitted determination of the holding potential at which all channels are in the resting state.
For compounds causing significant retardation of recovery from inactivation, an estimate of the affinity for the inactivated state of the channel (Ki) was generated using the following protocol. From the negative, no residual inactivation, holding potential, the cell was depolarized to the conditioning voltage for 2-5 seconds, returned to the negative holding potential for 10-20 ms to relieve fast inactivation and then depolarized to the test potential for ˜15 ms. This voltage protocol was repeated every 10-15 seconds, first to establish a baseline in the absence of the test compound, then in the presence of the test compound.
After a stable baseline was established, the test compound was applied and block of the current elicited by the test pulse assessed. In some cases, multiple cumulative concentrations were applied to identify a concentration that blocked between 40-60% of this current. Washout of the compound was attempted by superfusing with control solution once steady-state block was observed. An estimate of the Ki was calculated as follows: Ki=[drug]*{FR/(1−FR)}, Eq. 1 where [drug] is the concentration of a drug, and FR=I(after drug)/l(control), Eq. 2 where I is the peak current amplitude. If multiple concentrations were used, Ki was determined from the fit of a logistic equation to FRs plotted against corresponding drug concentrations.
In the alternative, the voltage clamp protocol to examine hNav1.7 currents was as follows. […]

[1] = recombinant HEK293 cells expressing human Nav1.7, CoroNa Green sodium dye, veratridine + scorpion venom, read-out: FLIPR Nav 1.7 IC50 (μM) ± SEM
[2] = read-out: FLIPR Nav 1.7 IC50 (μM) ± SEM

Sequence of human Nav1.7 (Q15858 other isoform, or with tags, fused parts or gaps): as above

Compound | IC50 (human Nav1.7; [1]) | IC50 (human Nav1.7; [2]) | other results
NC(=O)[C@@H](O)[C@H](O)c1cccc(-c2ccc(Oc3ccc(Cl)nc3)cc2)n1 | 0.376 ± 0.057 µM | – | –
NC(=O)[C@@H](O)[C@H](O)c1cccc(-c2ccc(Oc3ccc(F)cc3)cc2)n1 | – | 1.41 ± 0.281 µM | –
N#Cc1cc(Oc2ccc(-c3cccc([C@H](O)[C@@H](O)C(N)=O)n3)cc2)ccc1C(F)(F)F [Compound 19, (2R,3S)-3-(6-(4-(3-Cyano-4-(trifluoromethyl)phenoxy)phenyl)pyridin-2-yl)-2,3-dihydroxypropanamide] | – | 0.244 ± 0.05 µM | Kd (hNav1.7): 17.1 ± 4.24 µM; Ki (hNav1.7): 0.347 ± 0.07 µM
NC(=O)[C@H](O)[C@@H](O)c1cccc(-c2ccc(Oc3ccc(C(F)(F)F)cn3)cc2)n1 | 1.69 ± 0.019 µM | – | –
CCOC(=O)[C@@H](O)[C@H](O)c1cn(-c2ccc(Oc3ccc(C(F)(F)F)cn3)cc2)c2ccccc12 [Compound 6, (2S,3R)-Ethyl 2,3-dihydroxy-3-(1-(4-((5-(trifluoromethyl)pyridin-2-yl)oxy)phenyl)-1H-indol-3-yl)propanoate] | 0.152 ± 0.031 µM | – | –
CNC(=O)[C@@H](O)[C@H](O)c1cn(-c2ccc(Oc3ccc(C(F)(F)F)cn3)cc2)c2ccccc12 [Compound 7, (2S,3R)-2,3-Dihydroxy-N-methyl-3-(1-(4-((5-(trifluoromethyl)pyridin-2-yl)oxy)phenyl)-1H-indol-3-yl)propanamide] | 0.282 ± 0.002 µM | – | –
NC(=O)[C@@H](O)[C@H](O)c1cccc(-c2ccc(Oc3ccc(C(F)(F)F)cn3)cc2)n1 | 0.711 ± 0.05 µM | – | –
N#Cc1ccc(Oc2ccc(-c3cccc([C@@H](O)[C@H](O)C(N)=O)n3)cc2)cc1C(F)(F)F | 0.461 ± 0.045 µM | – | –
N#Cc1ccc(Oc2ccc(-c3cccc([C@@H](O)[C@H](O)C(N)=O)n3)cc2)cc1 | 0.262 ± 0.017 µM | – | –
NC(=O)[C@@H](O)[C@H](O)c1cccc(-c2ccc(Oc3ccc(Cl)cn3)cc2)n1 | – | 1.19 ± 0.074 µM | –
N#Cc1ccc(Oc2ccc(-c3cccc([C@H](O)[C@@H](O)C(N)=O)n3)cc2)cc1C(F)(F)F | 0.489 ± 0.04 µM | – | –
NC(=O)[C@@H](O)[C@H](O)c1cccc(-c2ccc(Oc3ccc(C(F)(F)F)cc3)cc2)n1 | 0.13 ± 0.025 µM | – | –
NC(=O)[C@@H](O)[C@H](O)c1cn(-c2ccc(Oc3ccc(C(F)(F)F)cn3)cc2)c2ccccc12 [Compound 8, (2S,3R)-2,3-Dihydroxy-3-(1-(4-((5-(trifluoromethyl)pyridin-2-yl)oxy)phenyl)-1H-indol-3-yl)propanamide] | – | 0.193 ± 0.049 µM | –
NC(=O)[C@H](O)[C@@H](O)c1ccnc(-c2ccc(Oc3ccc(F)cc3)cc2)n1 [Compound 26, (2R,3S)-3-(2-(4-(4-fluorophenoxy)phenyl)pyrimidin-4-yl)-2,3-dihydroxypropanamide] | 0.625 ± 0.058 µM | – | Kd (hNav1.7): 97.9 ± 23.1 µM; Ki (hNav1.7): 2.26 ± 0.61 µM
NC(=O)[C@H](O)[C@@H](O)c1cn(-c2ccc(Oc3ccc(C(F)(F)F)cn3)cc2)c2ccccc12 [Compound 5, (2R,3S)-2,3-Dihydroxy-3-(1-(4-((5-(trifluoromethyl)pyridin-2-yl)oxy)phenyl)-1H-indol-3-yl)propanamide] | – | 0.314 ± 0.038 µM | –
N#Cc1ccc(Oc2ccc(-c3cccc([C@H](O)[C@@H](O)C(N)=O)n3)cc2)cc1 | 0.69 ± 0.071 µM | – | –
NC(=O)[C@H](O)[C@@H](O)c1cccc(-c2ccc(Oc3ccc(Cl)nc3)cc2)n1 | 0.804 ± 0.044 µM | – | –
CCOC(=O)[C@@H](O)[C@H](O)c1cccc(-c2ccc(Oc3ccc(C(F)(F)F)c(C#N)c3)cc2)n1 [Compound 14, (2S,3R)-Ethyl 3-(6-(4-(3-cyano-4-(trifluoromethyl)phenoxy)phenyl)pyridin-2-yl)-2,3-dihydroxypropanoate] | – | – | IC50 (human Nav1.7): 0.246 ± 0.031 µM
N#Cc1cc(Oc2ccc(-c3cccc([C@@H](O)[C@H](O)C(N)=O)n3)cc2)ccc1C(F)(F)F [Compound 15, (2S,3R)-3-(6-(4-(3-Cyano-4-(trifluoromethyl)phenoxy)phenyl)pyridin-2-yl)-2,3-dihydroxypropanamide] | – | 0.304 ± 0.022 µM | Kd (hNav1.7): 32.9 ± 6.89 µM; Ki (hNav1.7): 0.917 ± 0.05 µM
NC(=O)[C@H](O)[C@@H](O)c1cccc(-c2ccc(Oc3ccc(Cl)cn3)cc2)n1 | – | 1.44 ± 0.078 µM | –
NC(=O)[C@H](O)[C@@H](O)c1cccc(-c2ccc(Oc3ccc(F)cc3)cc2)n1 | – | 1.84 ± 0.309 µM | –
NC(=O)[C@H](O)[C@@H](O)c1cccc(-c2ccc(Oc3ccc(C(F)(F)F)cc3)cc2)n1 | 0.383 ± 0.072 µM | – | –

From patent US9181185B2, “Heteroaryl compounds as sodium channel blockers” (Purdue Pharma L.P., priority 2011, dated 2015)
